# Where a SMILES comes first, the peptide text is derived from it. [ ]: non-standard residue; d: D form. The star is where a group is joined. NH(CH2)3NH(1-anthraquinonyl) = O=C1c2ccccc2C(=O)c2c(NCCCN*)cccc21
# What was measured:
# topo I = biological target: T1, topo I (Homo sapiens, UniProt P11387); experiment: Inhibition of topo I-mediated relaxation of pBR322 DNA; type: biochemical; settings: tested between 1-100 μM
# T1 sequence (P11387 1-765): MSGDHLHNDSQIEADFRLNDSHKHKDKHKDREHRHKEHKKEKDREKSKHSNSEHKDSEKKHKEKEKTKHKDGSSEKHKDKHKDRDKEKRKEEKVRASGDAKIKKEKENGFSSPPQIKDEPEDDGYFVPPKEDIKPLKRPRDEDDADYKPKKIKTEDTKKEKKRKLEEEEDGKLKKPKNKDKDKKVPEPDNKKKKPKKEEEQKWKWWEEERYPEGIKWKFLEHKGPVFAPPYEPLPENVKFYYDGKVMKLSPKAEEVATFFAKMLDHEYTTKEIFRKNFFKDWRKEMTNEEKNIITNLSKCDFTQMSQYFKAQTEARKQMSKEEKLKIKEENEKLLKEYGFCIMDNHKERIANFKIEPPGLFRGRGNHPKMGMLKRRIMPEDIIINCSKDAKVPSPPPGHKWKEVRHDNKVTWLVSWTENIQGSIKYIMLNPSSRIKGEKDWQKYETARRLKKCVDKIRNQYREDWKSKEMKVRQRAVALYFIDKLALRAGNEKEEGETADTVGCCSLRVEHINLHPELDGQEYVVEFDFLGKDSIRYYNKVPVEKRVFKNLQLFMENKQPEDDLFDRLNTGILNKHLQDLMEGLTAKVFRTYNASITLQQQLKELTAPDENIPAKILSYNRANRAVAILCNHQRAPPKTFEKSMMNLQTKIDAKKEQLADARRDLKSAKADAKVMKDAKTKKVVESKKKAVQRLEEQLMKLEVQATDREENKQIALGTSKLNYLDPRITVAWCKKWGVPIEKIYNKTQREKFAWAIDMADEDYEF
# Experimental: Neither example (8) [NU:UB187] (heptapeptide) nor its hexa-, penta-, or tetra-peptide metabolites {examples (7) [NU:UB 205], (6) [NU:UB 204] and (5) [NU:UB 186] respectively} inhibited the topo I- mediated relaxation of pBR322 DNA at concentrations up to 100 μM. […] (the preferred MMP-2 cleavage product of example (8) [NU:UB187] The topo I activities of example (2) [NU:UB 31] and example (1b) [NU:UB 197] bad previously been determined [Table 1].
# [1] = In vitro tumour incubations: metabolism by dilute HT1080 tumour homogenate (HPLC); type: in vitro ADME; settings: dilute HT1080 tumour homogenate (1:500)
# Experimental: Separation was achieved using gradient reversed phase HPLC On a Lichrospher (25×4 mm) column.
# Mobile phase A consisted of 10% acetonitrile: 90% TFA (0.05%) and mobile phase B of 60% acetonitrile: 40% TFA (0.05%). Optimum detection was at the λmax of 248 nm using a flow rate of 1.2 ml/min. The gradient profile was from 60% A to 5% A over 25 min.
# Sample preparation for HPLC was by simple protein precipitation. 3 vols. of methanol were added to 1 vol. of sample (typically 100 μl) which was centrifuged at 3000 g for 5 min. The supernatant was injected directly onto the HPLC column.
# In Vitro Tumour Incubations
# Solid tumour (HTT1080—excised from NCI-Nu mice under a Home Office Licence) was homogenised (1:4) in MMP buffer. Tumour homogenates were incubated at 25° C. and compounds (drugs) were added to the homogenate to give a final concentration of 10 μM or 100 μM. Samples were taken at timed intervals and prepared for HPLC analysis as described above.
# Where metabolism was so rapid tumour homogenates required dilution (to 1:500) before analysis.
# calf thymus DNA [2] = experiment: Fluorescence quenching, Hoechst Dye 33258 displacement from calf thymus DNA; type: binding
# [3] = test system: MAC15A adenocarcinoma of the colon; experiment: In vitro cytotoxicity against MAC15A adenocarcinoma of the colon, 96 hours exposure; type: cell-based; settings: Mus musculus, 96 h
# MAC15A = experiment: In vitro cytotoxicity, MAC15A, 1 hour exposure; type: cell-based; settings: for % cells remaining: 1 × 10^4 cells/ml
# calf thymus DNA [4] = experiment: Fluorescence quenching, Ethidium Bromide displacement from calf thymus DNA; type: binding
# human recombinant MMP-9 = biological target: T2, human recombinant MMP-9 (Homo sapiens, UniProt P14780); experiment: In vitro enzyme incubation with recombinant MMP-9 (HPLC, MS/MS); type: biochemical; settings: HPLC and MS/MS
# T2 construct: purchased Calbiochem (Calbiochem-Novabiochem Ltd, Nottingham, UK)
# Experimental: In vitro Enzyme Incubations
# Compounds were incubated in vitro with purified recombinant enzyme (either MMP-9 or MMP-2) (Calbiochem, Nottingham, UK). Typically, compounds (drugs) were incubated at 5 μM concentrations using 10 μl of enzyme, 10μl of drug and 90 μl of buffer at 25° C. The buffer used consisted of 200 mM NaCl, 50 mM Tris, 5 mM CaCl2, 20 μM ZnSO4 and 0.05% Brij35 at pH 7.6.
# At various time points 20 μl samples were taken and 60 μl of methanol added to precipitate proteins as described above and the metabolism of the compounds was analysed by HPLC (as above).
# T2 sequence (P14780 94-707): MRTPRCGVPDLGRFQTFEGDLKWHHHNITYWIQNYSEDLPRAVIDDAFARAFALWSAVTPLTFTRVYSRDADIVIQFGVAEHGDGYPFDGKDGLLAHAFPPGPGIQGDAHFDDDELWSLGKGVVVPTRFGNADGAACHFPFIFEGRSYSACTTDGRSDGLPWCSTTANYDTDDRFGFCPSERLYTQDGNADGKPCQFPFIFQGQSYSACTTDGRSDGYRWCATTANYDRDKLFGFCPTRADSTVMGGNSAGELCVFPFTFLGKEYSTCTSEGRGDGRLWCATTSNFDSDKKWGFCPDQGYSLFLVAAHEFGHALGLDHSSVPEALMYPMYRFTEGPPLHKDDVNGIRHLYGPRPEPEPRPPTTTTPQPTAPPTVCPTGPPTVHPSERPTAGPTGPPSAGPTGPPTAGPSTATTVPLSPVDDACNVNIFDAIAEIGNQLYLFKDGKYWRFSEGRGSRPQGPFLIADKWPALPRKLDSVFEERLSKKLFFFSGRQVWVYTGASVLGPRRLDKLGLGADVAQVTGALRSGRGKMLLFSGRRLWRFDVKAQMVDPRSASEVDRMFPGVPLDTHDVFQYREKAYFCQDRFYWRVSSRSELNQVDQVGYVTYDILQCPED
smiles,measurement,setting,value
"CC(C)C[C@H](NC(=O)[C@H](C)NC(=O)[C@H](C)NC(=O)[C@@H](C)N)C(=O)NCC(=O)N[C@@H](CC(C)C)C(=O)N1CCC[C@H]1C(=O)NCCCNc1cccc2c1C(=O)c1ccccc1C2=O.O=C(O)C(F)(F)F [Example 8, 1-[3-(D-Alanyl-L-alanyl-L-alanyl-L-leucyl-glycyl-L-leucyl-L-prolylamino)-propylamino]anthraquinone trifluoroacetate] (H-[dA]AALGLP-{NH(CH2)3NH(1-anthraquinonyl)})",LEVEL OF INHIBITION of topo I-mediated relaxation pBR322 DNA,topo I,No inhibition of relaxation between 1-100 μM
same,major products / metabolite,[1],the cleavage product Example 4 and the anthraquinone Example 1a
same,rate of metabolism,[1],1.75 μmol/min/g tissue
same,melting point,,166 °C
same,QH50 (Hoechst Dye 33258 displacement),calf thymus DNA [2]; calf thymus DNA,4 µM
same,groove binding to DNA,calf thymus DNA [2]; in comparison to example (2) NU:UB 31,weak groove binding agent
same,IC50,[3],36 µM
same,% cells remaining,MAC15A; 1 μM,100%
same,% cells remaining,MAC15A; 10 μM,100%
same,% cells remaining,MAC15A; 100 μM,95%
same,IC50,MAC15A; Mus musculus,> 100 µM
same,QE50 (Ethidium Bromide displacement),calf thymus DNA [4]; calf thymus DNA,17 µM
same,intercalation into DNA,calf thymus DNA [4]; refers to Table 3,not to intercalate into DNA
same,cleavage product with MMP-9,human recombinant MMP-9,"cleavage to anthraquinonyl, spacer-linked tripeptide Example 4"

# Source: US20040248765A1, “Tumour targeting prodrugs activated by metallo matrixproteinases” (priority 2001, published 2004)
